{"source": "patent US20050026866A1", "about": "(priority 2002, published 2005)", "assay_type_in_all_cases": "cell-based", "key": {"[1]": {"tested_on": "SKMel-23 human melanoma cells", "details": "L-histidine alone, no B. pertussis strain", "experimental": "Skmel-23/C22 human melanoma cells were cultured 15 h with or without the addition of B. pertussis to the culture medium.\n(§1) Cancer cells tested were human carcinomas of the breast, lung, and kidney, and melanoma. Toxicity of B. pertussis strain 536, but not of Tohama I, was dependent on the simultaneous addition of rich nutrient broth such as Luria-Bertani bacterial growth medium, or amino acid-rich broths such as tryptone or casamino acids. […] The principal active ingredient in these broths was the amino acid histidine. […] Of 18 amino acids tested, only histidine induced a Bordetella-mediated cytotoxic/lytic effect."}, "[2]": {"tested_on": "human carcinomas of the breast, lung, and kidney, and melanoma", "details": "without bacteria", "excerpt": "as §1"}, "[3]": {"tested_on": "Bordetella attachment and invasion into human melanoma cell line Skmel-23/C22", "experimental": "Bordetella pertussis was cultured for 48-72 h on Bordet-Gengou agar plates (Remel, Inc.) in a 37° C. incubator. Prior to exposure of bacteria to mammalian cells (15-30 minutes), the bacteria were loop-transferred to Luria-Bertani (LB) liquid growth medium and adjusted to a concentration of 10^9 cfu/ml (OD600=0.5). Human Skmel-23/C22 metastatic melanoma cells, normal human melanocytes, or normal human fibroblasts were inoculated into Corning 12 well tissue culture plates (2-4×10^4 cells/well) in antibiotic-free DMEM growth medium supplemented with 10% fetal bovine serum, and placed in a gassed, humidified incubator, at 37° C. After 24 h, melanoma cells were fed with 1 ml fresh medium, and 15-20 h later, Bordetella pertussis strain 536 was added as described below. Potential inhibitors of Bordetella attachment and invasion of melanoma cells were added immediately before, or up to 2 h before addition of bacteria, as noted. […] Melanoma cells were then plated onto Bordet-Gengou agar plates in serial dilutions, incubated at 37° for 4d, and Bordetella pertussis were quantitated by colony counts as ‘colony forming units’ (cfu). […]\nStructural requirements on cancer cells for attachment and invasion of B. pertussis. Quantitative invasion assays were carried out with various additives to investigate structural requirements on human melanoma cells for attachment and invasion of B. pertussis. […]"}}, "note": "Read-outs that look alike come from different tables or passages of the source."}
{"compound": "N[C@@H](Cc1c[nH]cn1)C(=O)O", "note": "[L-histidine]", "values": [{"measurement": "melanoma cells/well (24 h post-treatment)", "setting": "[1]", "result": "1.7 ± .07 × 10^5 melanoma cells/well"}, {"measurement": "melanoma cells/well, % untreated cultures", "setting": "[1]; 24 h post-treatment", "result": 106, "unit": "% untreated cultures"}, {"measurement": "toxicity of histidine alone", "setting": "[2]", "result": "no toxicity"}]}
{"compound": "Arg-Gly-Asp [RGD]", "values": [{"measurement": "Bordetella (cfu/well) (% Control +/− S.D.)", "setting": "[3]; 0.8 mg/ml, added 2 h prior to bacteria, implied target Arg-Gly-Asp tripeptide sequence", "result": "50 ± 5", "unit": "% Control"}]}
{"compound": "C[C@H](O)[C@@H](O)[C@@H](O)[C@H](O)C=O", "note": "[L-fucose]", "values": [{"measurement": "Bordetella (cfu/well) (% Control +/− S.D.)", "setting": "[3]; 0.2% wt/vol, added 5 min. prior to bacteria, implied target fucosylated structures", "result": "52 ± 14", "unit": "% Control"}]}
